Results as given in ChEMBL document CHEMBL1201862, “PubChem BioAssay data set” (2004).
Calls of active or inactive are those of the source.

Legend:
[1] = biological target: T1, Ubiquitin-conjugating enzyme E2 N (Homo sapiens, UniProt P61088); type: functional;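 also: Dose-response confirmation in a TR-FRET assay detecting UBC13-driven polyubiquitin chain formation, inhibition measured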
T1 sequence (P61088 whole entry): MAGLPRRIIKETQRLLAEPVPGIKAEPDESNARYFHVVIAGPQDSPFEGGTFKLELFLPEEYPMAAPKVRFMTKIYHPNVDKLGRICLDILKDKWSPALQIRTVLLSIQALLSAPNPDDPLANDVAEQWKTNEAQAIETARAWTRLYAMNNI

[2] = biological target: T2, Protein RecA (Mycobacterium tuberculosis, UniProt P9WHJ3); assay: Fluorescence Cell-Free Homogeneous Dose Retest to Identify Inhibitors of RecA-Intein Splicing Activity. [Related pubchem assays (depositor defined):AID2097, AID2223, AID489010, AID492950]; type: functional
T2 sequence (P9WHJ3 whole entry): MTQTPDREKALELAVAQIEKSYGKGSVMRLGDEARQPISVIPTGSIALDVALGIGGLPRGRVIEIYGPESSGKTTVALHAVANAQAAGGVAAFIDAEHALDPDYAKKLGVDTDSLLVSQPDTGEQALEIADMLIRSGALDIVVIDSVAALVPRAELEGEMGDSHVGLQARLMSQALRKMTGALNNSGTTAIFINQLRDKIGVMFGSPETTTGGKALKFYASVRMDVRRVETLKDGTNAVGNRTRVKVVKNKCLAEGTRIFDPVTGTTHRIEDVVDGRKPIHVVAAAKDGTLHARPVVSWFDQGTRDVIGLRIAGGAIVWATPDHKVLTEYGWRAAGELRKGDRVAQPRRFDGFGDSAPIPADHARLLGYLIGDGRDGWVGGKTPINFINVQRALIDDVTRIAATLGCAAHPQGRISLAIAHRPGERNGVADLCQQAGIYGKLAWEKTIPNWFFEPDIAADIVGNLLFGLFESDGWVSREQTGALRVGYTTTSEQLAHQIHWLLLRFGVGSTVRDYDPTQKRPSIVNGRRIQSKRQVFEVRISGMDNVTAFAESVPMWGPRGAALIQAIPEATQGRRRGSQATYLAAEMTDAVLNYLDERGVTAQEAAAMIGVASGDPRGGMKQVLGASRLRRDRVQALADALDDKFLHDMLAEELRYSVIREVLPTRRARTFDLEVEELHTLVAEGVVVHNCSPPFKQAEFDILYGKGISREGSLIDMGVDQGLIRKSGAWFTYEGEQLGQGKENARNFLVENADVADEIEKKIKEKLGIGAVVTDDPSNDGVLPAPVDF

[3] = Luminescence Cell-Based Dose Retest to Confirm Inhibitors of Cancer Stem Cells. [Related pubchem assays (depositor defined):AID2717, AID2721]; type: functional; settings: Homo sapiens
[4] = cytotoxicity toward NIH3T3 fibroblasts, dose response, counter-screen, cell-based, ATP luminescence, mouse fibroblasts (AID 2010); type: functional;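 also: cells exposed to compound for about 90 hours before reading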
[5] = inhibitors of intracellular T. cruzi replication, confirmation, NIH3T3 host cells, beta-gal luminescence (AID 2044); type: functional, cell-based;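 also: intracellular parasites grown in NIH/3T3 mouse fibroblasts as host cells; luminescent beta-galactosidase reporter signal from transgenic T. cruzi replicating inside host cells; inhibitors lower the luminescence signal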
[6] = tested on: INS1; assay: beta cell apoptosis inhibitors, cytokine rescue, dose response, luminescence, retest (AID 449756); type: functional, cell-based; settings: Rattus norvegicus;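 also: cell death triggered by IL-1 beta plus TNF-alpha plus IFN-gamma mixture; protective hits raise ATP signal compared with cytokine alone wells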
[7] = biological target: T3, Replicative DNA helicase DnaB (Mycobacterium tuberculosis, UniProt P9WMR3); assay: DnaB intein splicing inhibitors, dose response, biochemical, cell-free fluorescence (AID 449749); type: functional
T3 sequence (P9WMR3 whole entry): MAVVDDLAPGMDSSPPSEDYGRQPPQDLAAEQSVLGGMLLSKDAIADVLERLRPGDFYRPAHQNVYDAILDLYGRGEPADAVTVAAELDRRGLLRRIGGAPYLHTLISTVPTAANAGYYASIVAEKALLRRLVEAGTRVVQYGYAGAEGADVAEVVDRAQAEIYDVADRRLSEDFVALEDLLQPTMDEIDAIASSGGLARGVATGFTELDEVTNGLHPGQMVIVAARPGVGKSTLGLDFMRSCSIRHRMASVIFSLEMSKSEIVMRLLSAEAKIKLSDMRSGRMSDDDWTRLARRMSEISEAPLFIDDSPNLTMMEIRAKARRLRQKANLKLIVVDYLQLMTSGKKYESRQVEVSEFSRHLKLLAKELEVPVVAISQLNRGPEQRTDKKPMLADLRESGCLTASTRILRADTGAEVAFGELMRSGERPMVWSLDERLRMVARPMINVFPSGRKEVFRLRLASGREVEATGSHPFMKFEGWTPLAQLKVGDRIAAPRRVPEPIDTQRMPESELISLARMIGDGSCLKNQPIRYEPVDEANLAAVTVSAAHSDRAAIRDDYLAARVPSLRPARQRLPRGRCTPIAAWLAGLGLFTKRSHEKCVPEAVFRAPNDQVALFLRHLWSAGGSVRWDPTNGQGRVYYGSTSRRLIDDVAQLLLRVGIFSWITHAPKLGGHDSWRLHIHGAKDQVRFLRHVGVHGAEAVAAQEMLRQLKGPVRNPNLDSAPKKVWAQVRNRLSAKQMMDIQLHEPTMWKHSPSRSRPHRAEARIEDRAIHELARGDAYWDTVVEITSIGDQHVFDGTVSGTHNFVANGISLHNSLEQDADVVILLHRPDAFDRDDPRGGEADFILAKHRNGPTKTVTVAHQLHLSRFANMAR

[8] = biological target: T4, Estrogen receptor (Homo sapiens, UniProt P03372);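 also: potency for inhibiting coactivator peptide recruitment to the receptor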
T4 sequence (P03372 whole entry): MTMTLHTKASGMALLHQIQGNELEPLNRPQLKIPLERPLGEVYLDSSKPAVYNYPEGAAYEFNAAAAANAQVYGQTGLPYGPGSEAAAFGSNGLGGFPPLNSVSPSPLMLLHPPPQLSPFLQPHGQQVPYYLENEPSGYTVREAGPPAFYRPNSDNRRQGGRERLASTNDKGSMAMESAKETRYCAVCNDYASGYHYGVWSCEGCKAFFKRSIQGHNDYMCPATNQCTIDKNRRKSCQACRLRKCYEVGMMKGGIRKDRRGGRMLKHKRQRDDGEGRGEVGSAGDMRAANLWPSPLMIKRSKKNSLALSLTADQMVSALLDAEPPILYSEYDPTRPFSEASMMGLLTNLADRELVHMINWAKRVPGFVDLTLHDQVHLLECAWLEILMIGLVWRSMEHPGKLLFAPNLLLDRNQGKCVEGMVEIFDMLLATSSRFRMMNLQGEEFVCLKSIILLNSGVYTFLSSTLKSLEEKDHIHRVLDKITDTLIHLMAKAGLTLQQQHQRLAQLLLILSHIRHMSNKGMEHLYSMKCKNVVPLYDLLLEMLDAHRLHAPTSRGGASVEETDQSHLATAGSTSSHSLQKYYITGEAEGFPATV

[9] = cells; type: functional, cell-based
[10] = cells; type: functional, cell-based; remark: listed apart in the source
[11] = intracellular Trypanosoma cruzi inhibitors in host cells – cell-based, plate reader, cherry-pick samples, set 3, dose response (AID 651818); type: functional;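 also: compounds incubated with infected cells for about four days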
[12] = biological target: T5, Heat shock factor protein 1 (Mus musculus, UniProt P38532); assay: HSF1 potentiators in luciferase reporter cells, confirmation, cell-based, NIH3T3, luminescence, dose retest (AID 435004); type: functional;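 also: stress induced by proteasome inhibitor MG132 added 30 min after compound; luciferase reporter driven by HSF1 response element in NIH3T3 cells; actives raise luminescence as potentiators of the MG132 stress response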
T5 sequence (P38532 whole entry): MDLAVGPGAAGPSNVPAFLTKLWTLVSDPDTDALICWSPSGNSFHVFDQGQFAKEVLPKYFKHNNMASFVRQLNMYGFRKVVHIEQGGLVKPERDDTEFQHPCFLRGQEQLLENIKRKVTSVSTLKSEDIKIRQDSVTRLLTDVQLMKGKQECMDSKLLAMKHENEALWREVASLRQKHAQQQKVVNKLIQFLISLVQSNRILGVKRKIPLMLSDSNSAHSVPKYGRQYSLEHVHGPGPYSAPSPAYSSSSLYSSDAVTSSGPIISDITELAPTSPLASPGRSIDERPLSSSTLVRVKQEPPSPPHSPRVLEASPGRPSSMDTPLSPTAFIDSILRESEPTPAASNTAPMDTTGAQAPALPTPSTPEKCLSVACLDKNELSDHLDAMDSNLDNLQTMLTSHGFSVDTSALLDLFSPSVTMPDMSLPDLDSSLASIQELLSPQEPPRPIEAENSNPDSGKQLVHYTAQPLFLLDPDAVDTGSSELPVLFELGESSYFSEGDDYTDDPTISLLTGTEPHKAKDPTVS

[13] = biological target: Genome polyprotein (dengue virus type 2, UniProt P29990); assay: Dengue-2 NS5 methyltransferase inhibitors, primary screen, biochemical, confirmation dose response (AID 588689); type: functional
Sequence of Genome polyprotein (P29990 2492-3391 limits assumed): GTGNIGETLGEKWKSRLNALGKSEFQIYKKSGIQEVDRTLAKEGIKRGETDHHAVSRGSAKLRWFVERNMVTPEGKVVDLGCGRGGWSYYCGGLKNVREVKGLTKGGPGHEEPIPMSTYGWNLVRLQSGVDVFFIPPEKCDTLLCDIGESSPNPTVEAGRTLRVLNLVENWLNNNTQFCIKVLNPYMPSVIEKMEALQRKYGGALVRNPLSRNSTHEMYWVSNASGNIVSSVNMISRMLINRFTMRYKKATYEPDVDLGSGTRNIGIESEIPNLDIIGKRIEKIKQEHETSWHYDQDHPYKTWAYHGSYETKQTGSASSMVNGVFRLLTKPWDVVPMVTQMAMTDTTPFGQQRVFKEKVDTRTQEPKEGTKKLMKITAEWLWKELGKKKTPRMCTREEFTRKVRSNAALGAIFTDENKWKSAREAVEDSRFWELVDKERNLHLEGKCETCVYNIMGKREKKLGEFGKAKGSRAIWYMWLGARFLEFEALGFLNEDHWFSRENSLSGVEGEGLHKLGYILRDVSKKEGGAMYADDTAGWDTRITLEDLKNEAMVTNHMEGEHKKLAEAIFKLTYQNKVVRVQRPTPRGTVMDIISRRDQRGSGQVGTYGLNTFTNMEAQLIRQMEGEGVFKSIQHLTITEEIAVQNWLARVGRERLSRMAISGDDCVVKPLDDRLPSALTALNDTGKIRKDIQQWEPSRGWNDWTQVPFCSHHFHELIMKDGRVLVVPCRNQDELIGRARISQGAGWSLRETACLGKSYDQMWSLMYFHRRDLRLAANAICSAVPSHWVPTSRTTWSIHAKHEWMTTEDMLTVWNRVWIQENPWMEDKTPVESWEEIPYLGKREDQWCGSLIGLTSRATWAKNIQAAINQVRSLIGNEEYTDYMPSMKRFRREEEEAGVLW

[14] = biological target: Large T antigen (Simian virus 40, UniProt P03070); type: functional, Betapolyomavirus macacae;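 also: Confirmatory-stage PubChem screen for compounds that inhibit SV40 T antigen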
Sequence of Large T antigen (P03070 whole entry): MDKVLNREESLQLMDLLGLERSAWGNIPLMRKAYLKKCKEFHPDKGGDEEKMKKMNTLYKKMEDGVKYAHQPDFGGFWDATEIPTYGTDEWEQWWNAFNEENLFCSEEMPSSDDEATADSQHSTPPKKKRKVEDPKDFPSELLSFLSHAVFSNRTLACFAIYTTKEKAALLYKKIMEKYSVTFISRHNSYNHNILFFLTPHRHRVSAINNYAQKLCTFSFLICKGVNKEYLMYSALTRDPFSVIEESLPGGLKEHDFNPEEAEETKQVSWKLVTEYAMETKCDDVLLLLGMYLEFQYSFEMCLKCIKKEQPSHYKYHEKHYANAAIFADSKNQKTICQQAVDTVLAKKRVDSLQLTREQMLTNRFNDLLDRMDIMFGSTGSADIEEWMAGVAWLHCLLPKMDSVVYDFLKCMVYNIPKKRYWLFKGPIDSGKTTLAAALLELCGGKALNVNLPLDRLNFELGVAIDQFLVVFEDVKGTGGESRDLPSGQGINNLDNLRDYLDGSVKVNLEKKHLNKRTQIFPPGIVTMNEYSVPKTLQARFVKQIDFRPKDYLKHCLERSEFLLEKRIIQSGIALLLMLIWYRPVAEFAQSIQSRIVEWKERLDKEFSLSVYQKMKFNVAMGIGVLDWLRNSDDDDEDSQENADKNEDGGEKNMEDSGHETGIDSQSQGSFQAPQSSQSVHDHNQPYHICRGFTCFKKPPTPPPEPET

[15] = biological target: Induced myeloid leukemia cell differentiation protein Mcl-1 (Homo sapiens, UniProt Q07820); type: functional
Sequence of Induced myeloid leukemia cell differentiation protein Mcl-1 (Q07820 whole entry): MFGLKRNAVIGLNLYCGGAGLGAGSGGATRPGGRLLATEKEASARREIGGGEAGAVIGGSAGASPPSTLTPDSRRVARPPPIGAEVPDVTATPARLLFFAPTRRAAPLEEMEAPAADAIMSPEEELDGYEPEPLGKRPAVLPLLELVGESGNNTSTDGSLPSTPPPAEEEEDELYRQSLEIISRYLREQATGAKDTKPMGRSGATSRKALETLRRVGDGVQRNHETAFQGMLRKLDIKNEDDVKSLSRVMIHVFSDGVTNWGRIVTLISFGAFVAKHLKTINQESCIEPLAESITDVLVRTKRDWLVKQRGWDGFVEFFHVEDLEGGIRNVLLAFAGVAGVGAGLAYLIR

[16] = tested on: P388/ADR; assay: cells; type: functional; settings: Mus musculus
[17] = tested on: P388; assay: cells; type: functional; settings: Mus musculus
[18] = tested on: SN12K1; assay: cells; type: functional; settings: Homo sapiens
[19] = biological target: T6, Carboxy-terminal domain RNA polymerase II polypeptide A small phosphatase 1 (Homo sapiens, UniProt Q9GZU7); assay: inhibitors of CTDSP1, concentration-response testing, biochemical assay, absorbance-based, actives from ultra-high-throughput screening (AID 540297); type: functional
T6 sequence (Q9GZU7 whole entry): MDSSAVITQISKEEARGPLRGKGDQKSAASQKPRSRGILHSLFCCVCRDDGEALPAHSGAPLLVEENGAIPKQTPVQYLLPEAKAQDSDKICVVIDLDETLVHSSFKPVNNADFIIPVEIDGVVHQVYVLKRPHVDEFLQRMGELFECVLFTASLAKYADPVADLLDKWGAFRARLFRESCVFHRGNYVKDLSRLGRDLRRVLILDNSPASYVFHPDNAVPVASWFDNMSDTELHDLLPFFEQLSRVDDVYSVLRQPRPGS

CCCCCc1cc(=O)oc2c(C(CCN3CCCC(C)C3)c3ccc(OC)cc3)c(OC)cc(OC)c12 (stereo not drawn)
IC50 [1]: > 20 µM (inactive)
EC50 [2]: 12 µM (active)
AC50 [3]: 3.25 µM (active)
EC50 [4]: 7.56 µM (active)
EC50 [5]: 1.6 µM (active)
AC50 [6]: 7.46 µM (active)
AC50 [7]: 4.78 µM (active)

COc1ccc(N(CN2C(=O)C3C4C=CC(C4)C3C2=O)C(=O)c2ccco2)cc1 (stereo not drawn)
IC50 [8]: > 50 µM (not active)

Cc1ccc(NC2CCCN(C(=O)C3CCCCC3)C2)cc1C (stereo not drawn)
EC50 [9]: > 350 µM (not active)
EC50 [10]: > 350 µM (not active)

C[C@@H]1CN([C@H](C)CO)C(=O)Cc2cc(NC(=O)CCCCCC(=O)Nc3ccccc3N)ccc2O[C@@H]1CN(C)Cc1ccc(Cl)c(Cl)c1
AC50 [11]: 4.01 µM (active)

C[C@H](CO)N1C[C@H](C)[C@H](CN(C)S(=O)(=O)c2ccc(Cl)cc2)Oc2c(NC(=O)CCCCCC(=O)Nc3ccccc3N)cccc2C1=O
AC50 [11]: 1.95 µM (active)

CCN(Cc1ccccc1)C(=O)C1CCN(C/C(C)=C/c2ccccc2)CC1
EC50 [12]: > 260 µM (inactive)

O=C(COc1cccnc1[N+](=O)[O-])c1ccc(Cl)s1
IC50 [13]: > 100 µM (active)
IC50 [14]: 67.7 µM (active)
IC50 [15]: 3.78 µM (active)

Nc1n[nH]c(N)n1 [GUANAZOLE]
GI50 [16]: 1060 µM (inactive)
GI50 [17]: 728 µM (inactive)
GI50 [18]: 2830 µM (inactive)

CC(=O)[C@H]1CCC2[C@@H]3CC=C4C(O)C(OS(=O)(=O)O)CC[C@]4(C)C3CC[C@@]21C (stereo partly drawn)
GI50 [16]: > 100 µM (inactive)
GI50 [17]: > 100 µM (inactive)
GI50 [18]: > 100 µM (inactive)

CCC(CC)COC(=O)C1=C(C)NC(=O)NC1c1cc(OC)ccc1OC (stereo not drawn)
EC50 [12]: > 260 µM (inactive)

COc1ccc(Cc2nc3ccc(S(=O)(=O)N4CCOCC4)cc3[nH]2)cc1
IC50 [8]: > 50 µM (not active)

COc1ccc(/C=N/NC(=O)c2ccc(O)cc2O)cc1CSc1ccccn1
IC50 [15]: 3.42 µM (active)
IC50 [19]: 5.92 µM (active)

C[C@@H]1CN([C@@H](C)CO)C(=O)c2cccc(NS(=O)(=O)c3cccs3)c2O[C@H]1CN(C)Cc1ccc(C(=O)Nc2ccccc2N)cc1
AC50 [11]: 5.68 µM (active)

CC(C)CC(=O)Nc1ccc(C(=O)COc2ccc(-c3nnco3)cc2)cc1
IC50 [8]: 22.3 µM (active)

CN(C)CCCOc1ccc(/C=N/NC(=O)CCCCCCC(=O)Nc2ccccc2O)cc1
AC50 [11]: 1.29 µM (active)

O=S1(=O)c2cccc3cccc(c23)N1Cc1nnc(-c2ccccc2Br)o1
EC50 [12]: 34.6 µM (active)

COc1ccccc1CNC(=O)c1csc(Cc2ccc(Cl)cc2)n1
EC50 [12]: > 260 µM (inactive)

COC(=O)c1ccc(CSc2nc3c(cnn3-c3ccc(C)c(C)c3)c(=O)[nH]2)o1
IC50 [8]: 38.5 µM (not active)

COc1ccc(N(C(=O)c2snc(C(N)=O)c2N)C(C(=O)NC2CCCCC2)c2ccc(C)o2)cc1 (stereo not drawn)
IC50 [1]: > 20 µM (inactive)

COc1ccc(NC(=O)CSc2nc3c(sc4ccccc43)c(=O)n2CCCN2CCCC2)cc1
IC50 [1]: > 20 µM (inactive)

C[C@@H]1CCCCO[C@@H](CN(C)S(=O)(=O)c2cccs2)[C@@H](C)CN([C@H](C)CO)C(=O)c2cc(NC(=O)Nc3ccc(C(F)(F)F)cc3)ccc2O1
AC50 [11]: 4.19 µM (active)

CC1[C@@H]2CC=C3C4CCC5Cc6nc7c(nc6C[C@@]5(C)C4CC(=O)[C@]32CO[C@@]1(O)C(O)CC(C)(C)O)CC1CCC2C3=C[C@H]4O[C@@]5(O[C@@](C)(CO)C[C@@H]5O)C(C)[C@@]4(O)[C@]3(C)[C@@H](O)CC2[C@]1(C)C7 (stereo partly drawn)
GI50 [16]: 0.0105 µM (active)
GI50 [17]: < 0.00036 µM (active)
GI50 [18]: < 0.00036 µM (active)

CCOC(=S)SCC(=O)Nc1nc(C)c(C)s1
EC50 [12]: 7.81 µM (active)

O=C(C1CCC(CNS(=O)(=O)c2cccc3nsnc23)CC1)N1CCN(c2ccccn2)CC1 (stereo not drawn)
EC50 [12]: > 260 µM (inactive)

CCc1ccccc1N1CCN(C(=O)c2cc(OC)c(OC)c(OC)c2)CC1
GI50 [16]: 0.119 µM (active)
GI50 [17]: 0.0395 µM (active)
GI50 [18]: 0.0614 µM (active)
